Data as given in patent US6914045B2, “Glycopeptide antibiotics” (Wyeth Holdings Corporation, priority 2001, dated 2005).
In brackets after ≈: the same amount, converted by molar mass.

Legend:
Assay in all cases: in vitro antibacterial evaluation, MIC by broth dilution
Format in all cases: cell-based
Streptococcus sp. = settings: broth dilution, 18 hours at 35° C.
In short: (§1)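 Inoculum 5×10^5 CFU/mL; concentrations 64 to 0.06 μg/mL; MIC defined as lowest inhibitory level. Conducted by broth dilution under NCCLS guidelines.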

Escherichia coli = settings: 18 hours at 35° C.
In short: as §1

Staphylococcus sp. = settings: broth dilution, 18 hours at 35° C.
In short: as §1

Enterococcus sp. = settings: broth dilution, 18 hours at 35° C.
In short: as §1

CC(c1ccccc1)C1NC(=O)CNC(=O)C(CO)NC(=O)C(C(O)C2CNC(=N)N2C2OC(CO)C(O)C(O)C2O)NC(=O)C(C(O)C2CNC(=N)N2)NC(=O)C(Cc2ccc(OC3OC(CO)C(OC4OC(CO)C(O)C5OC(CC67CC8CC(CC(C8)C6)C7)OC45)C(O)C3O)cc2)NC1=O (stereo not shown) [Example 128]
MIC Streptococcus agalactiae (GC 4564) (Streptococcus sp.; Streptococcus agalactiae (GC 4564)): 0.25 µg/mL (≈ 0.172 µM)
MIC Streptococcus pneumoniae (ATCC 6301) (Streptococcus sp.; Streptococcus pneumoniae (ATCC 6301)): 0.25 µg/mL (≈ 0.172 µM)
MIC Streptococcus pneumoniae (GC 1894) (Streptococcus sp.; Streptococcus pneumoniae (GC 1894)): <0.06 µg/mL
MIC Streptococcus pneumoniae (GC 4565) (Streptococcus sp.; Streptococcus pneumoniae (GC 4565)): 0.12 µg/mL (≈ 0.0824 µM)
MIC Streptococcus pyogenes (GC 4563) (Streptococcus sp.; Streptococcus pyogenes (GC 4563)): 0.5 µg/mL (≈ 0.344 µM)
MIC Streptococcus pneumoniae (ATCC 6301) (Streptococcus sp.; strain ATCC 6301): 0.25 µg/mL (≈ 0.172 µM)
MIC Streptococcus pneumoniae (GC 1894) (Streptococcus sp.; strain GC 1894): <0.06 µg/mL
MIC Streptococcus pyogenes (GC 4563) (Streptococcus sp.; strain GC 4563): 0.5 µg/mL (≈ 0.344 µM)
MIC Streptococcus agalactiae (GC 4564) (Streptococcus sp.; strain GC 4564): 0.25 µg/mL (≈ 0.172 µM)
MIC Streptococcus pneumoniae (GC 4565) (Streptococcus sp.; strain GC 4565): 0.12 µg/mL (≈ 0.0824 µM)
MIC Escherichia coli (ATCC 25922) (Escherichia coli; strain ATCC 25922): 32 µg/mL (≈ 22 µM)
MIC Escherichia coli (GC 4559) (Escherichia coli; strain GC 4559): 32 µg/mL (≈ 22 µM)
MIC Escherichia coli (GC 4560) (Escherichia coli; strain GC 4560): 4 µg/mL (≈ 2.75 µM)
MIC Staphylococcus aureus (ATCC 29213) (Staphylococcus sp.): 2 µg/mL (≈ 1.37 µM)
MIC Staphylococcus aureus (GC 1131) (Staphylococcus sp.): 4 µg/mL (≈ 2.75 µM)
MIC Staphylococcus aureus (GC 3051) (Staphylococcus sp.): 2 µg/mL (≈ 1.37 µM)
MIC Staphylococcus aureus (GC 3053) (Staphylococcus sp.): 2 µg/mL (≈ 1.37 µM)
MIC Staphylococcus aureus (GC 4541) (Staphylococcus sp.): 2 µg/mL (≈ 1.37 µM)
MIC Staphylococcus aureus (GC 4542) (Staphylococcus sp.): 2 µg/mL (≈ 1.37 µM)
MIC Staphylococcus aureus (GC 4544) (Staphylococcus sp.): 4 µg/mL (≈ 2.75 µM)
MIC Staphylococcus aureus (GC 4545) (Staphylococcus sp.): 2 µg/mL (≈ 1.37 µM)
MIC Staphylococcus aureus (GC 1131) (Staphylococcus sp.; inoculum 5×10^5 CFU/mL, strain GC 1131): 4 µg/mL (≈ 2.75 µM)
MIC Staphylococcus aureus (ATCC 29213) (Staphylococcus sp.; strain ATCC 29213): 2 µg/mL (≈ 1.37 µM)
MIC Staphylococcus aureus (GC 3051) (Staphylococcus sp.; strain GC 3051): 2 µg/mL (≈ 1.37 µM)
MIC Staphylococcus aureus (GC 3053) (Staphylococcus sp.; strain GC 3053): 2 µg/mL (≈ 1.37 µM)
MIC Staphylococcus aureus (GC 4541) (Staphylococcus sp.; strain GC 4541): 2 µg/mL (≈ 1.37 µM)
MIC Staphylococcus aureus (GC 4542) (Staphylococcus sp.; strain GC 4542): 2 µg/mL (≈ 1.37 µM)
MIC Staphylococcus aureus-SMITH (GC 4543) (Staphylococcus sp.; strain GC 4543): 2 µg/mL (≈ 1.37 µM)
MIC Staphylococcus aureus (GC 4544) (Staphylococcus sp.; strain GC 4544): 4 µg/mL (≈ 2.75 µM)
MIC Staphylococcus aureus (GC 4545) (Staphylococcus sp.; strain GC 4545): 2 µg/mL (≈ 1.37 µM)
MIC Staphylococcus haemolyticus (GC 4546) (Staphylococcus sp.; strain GC 4546): 2 µg/mL (≈ 1.37 µM)
MIC Coagulase Negative Staphylococcus (GC 4547) (Staphylococcus sp.; strain GC 4547): 4 µg/mL (≈ 2.75 µM)
MIC Coagulase Negative Staphylococcus (GC 4548) (Staphylococcus sp.; strain GC 4548): 2 µg/mL (≈ 1.37 µM)
MIC Coagulase Negative Staphylococcus (GC 4549) (Staphylococcus sp.; strain GC 4549): 2 µg/mL (≈ 1.37 µM)
MIC Coagulase Negative Staphylococcus (GC 4551) (Staphylococcus sp.; strain GC 4551): 4 µg/mL (≈ 2.75 µM)
MIC Coagulase Negative Staphylococcus (GC 6257) (Staphylococcus sp.; strain GC 6257): 2 µg/mL (≈ 1.37 µM)
MIC Staphylococcus aureus-SMITH (GC 4543) (Staphylococcus sp.; strain SMITH GC 4543): 2 µg/mL (≈ 1.37 µM)
MIC Enterococcus avium (GC 4558) (Enterococcus sp.; Enterococcus avium (GC 4558)): 4 µg/mL (≈ 2.75 µM)
MIC Enterococcus faecalis (ATCC 29212) (Enterococcus sp.; Enterococcus faecalis (ATCC 29212)): 4 µg/mL (≈ 2.75 µM)
MIC Enterococcus faecalis (GC 2242) (Enterococcus sp.; Enterococcus faecalis (GC 2242)): 4 µg/mL (≈ 2.75 µM)
MIC Enterococcus faecalis (GC 2691) (Enterococcus sp.; Enterococcus faecalis (GC 2691)): 4 µg/mL (≈ 2.75 µM)
MIC Enterococcus faecalis (GC 3059) (Enterococcus sp.; Enterococcus faecalis (GC 3059)): 4 µg/mL (≈ 2.75 µM)
MIC Enterococcus faecalis (GC 4552) (Enterococcus sp.; Enterococcus faecalis (GC 4552)): 4 µg/mL (≈ 2.75 µM)
MIC Enterococcus faecalis (GC 4553) (Enterococcus sp.; Enterococcus faecalis (GC 4553)): 4 µg/mL (≈ 2.75 µM)
MIC Enterococcus faecalis (GC 4554) (Enterococcus sp.; Enterococcus faecalis (GC 4554)): 4 µg/mL (≈ 2.75 µM)
MIC Enterococcus faecalis (GC 6189) (Enterococcus sp.; Enterococcus faecalis (GC 6189)): 4 µg/mL (≈ 2.75 µM)
MIC Enterococcus faecium (GC 2243) (Enterococcus sp.; Enterococcus faecium (GC 2243)): 4 µg/mL (≈ 2.75 µM)
MIC Enterococcus faecium (GC 4556) (Enterococcus sp.; Enterococcus faecium (GC 4556)): 4 µg/mL (≈ 2.75 µM)
MIC Enterococcus faecium (GC 4557) (Enterococcus sp.; Enterococcus faecium (GC 4557)): 4 µg/mL (≈ 2.75 µM)
MIC Enterococcus faecalis (ATCC 29212) (Enterococcus sp.; strain ATCC 29212): 4 µg/mL (≈ 2.75 µM)
MIC Enterococcus faecalis (GC 2242) (Enterococcus sp.; strain GC 2242): 4 µg/mL (≈ 2.75 µM)
MIC Enterococcus faecium (GC 2243) (Enterococcus sp.; strain GC 2243): 4 µg/mL (≈ 2.75 µM)
MIC Enterococcus faecalis (GC 2691) (Enterococcus sp.; strain GC 2691): 4 µg/mL (≈ 2.75 µM)
MIC Enterococcus faecalis (GC 3059) (Enterococcus sp.; strain GC 3059): 4 µg/mL (≈ 2.75 µM)
MIC Enterococcus faecalis (GC 4552) (Enterococcus sp.; strain GC 4552): 4 µg/mL (≈ 2.75 µM)
MIC Enterococcus faecalis (GC 4553) (Enterococcus sp.; strain GC 4553): 4 µg/mL (≈ 2.75 µM)
MIC Enterococcus faecalis (GC 4554) (Enterococcus sp.; strain GC 4554): 4 µg/mL (≈ 2.75 µM)
MIC Enterococcus faecium (GC 4556) (Enterococcus sp.; strain GC 4556): 4 µg/mL (≈ 2.75 µM)
MIC Enterococcus faecium (GC 4557) (Enterococcus sp.; strain GC 4557): 4 µg/mL (≈ 2.75 µM)
MIC Enterococcus avium (GC 4558) (Enterococcus sp.; strain GC 4558): 4 µg/mL (≈ 2.75 µM)
MIC Enterococcus faecalis (GC 6189) (Enterococcus sp.; strain GC 6189): 4 µg/mL (≈ 2.75 µM)
